Legend:
[1] = system: 3-Hydroxy-3-Methylglutaryl Coenzyme A Reductase (HMGR); test: HMGR Suppression Assay in digitonin-permeabilized CHO cells; assay type: cell-based, Chinese Hamster; details: 6 hr incubation at 37°, amount to suppress HMGR activity by 50% relative to controls
Procedure: The ability of the compounds of Formula I to suppress the activity of HMGR, the rate limiting enzyme of cholesterol biosynthesis, was tested as follows. Chinese Hamster Ovary (CHO) cells were divided twice weekly and were maintained in McCoy's 5A medium supplemented with 1% Cab-O-Sil delipidated Fetal Bovine Serum (FBS) (obtained from Gibco Laboratories, Chagrin Falls, Ohio). Cells were harvested during the logarithmic phase of growth and cell cultures were prepared by adding 0.5×10^6 cells to wash well in a 24 well cluster dish (obtained from Costar, Data Packaging Corp., Cambridge, Mass.) employing 1 mL of the above medium per each well. […] Control cells were treated in an identical fashion to those which received test compound, except they were incubated with the BSA and ethanol suspension only.
Specifically, the medium in each well was aspirated and the cells rinsed with a 50 mM solution of phosphate buffered saline (PBS). One mL of 30 μg/mL of digitonin in CSK buffer (prepared using 10 mM Pipes [piperazine-N,N'-bis(2-ethansulfonic)acid'], 100 mM KCl, 2.5 mM MgCl2, 300 mM sucrose, 1 mM EGTA, pH 6.8) was added to each well and incubated for 10 min at 22° to permeabilize the cells. The buffer was carefully aspirated and the wells were rinsed twice each time with 1 mL of PBS. HMGR activity was measured directly by adding 75 μL of PIB buffer (50 mM potassium phosphate, 1 mM Na2 EDTA, 10 mM dithiothreitol, pH 7.4) to each well and incubating the cells for 30 minutes at 37° as described above. […] HMG-Coenzyme A (15 DPM/pmol), pH 7.4. The assay mixture was incubated for 30 min at 37° and terminated by the addition of 70 μL of [^3 H]-mevalonic acid (35,000 DPM/assay), 0.15 mg/mL in 3 N HCl. The reaction was left to lactonize for an additional 30 min at 37° or overnight at room temperature.
Reaction products were separated by thin layer chromatography on silica gel G (obtained from Analtech, Newark, Del.) developed in an unsaturated environment with acetone:benzene (3:2, v:v). The band corresponding to mevalonolactone was identified by exposure to iodine vapor and was scraped into counting vials. The extent of conversion of starting substrate, HMG-CoA, to mevalonic acid was determined by liquid scintillation counting in Biofluor (obtained from New England Nuclear, Boston, Mass). Corrections for recovery and blank values were made for each sample. Protein determinations were made by the Bio-rad (Bio-Rad, Richmond, Cal.) dye binding assay according to the manufacturer's instruction using bovine serum albumin as standard. Cellular protein was solubilized from culture dishes by the addition of 20 μL of 16 N KOH and assayed directly for protein amount. Suppression values are expressed as the amount of compound required to suppress HMGR activity by 50% relative to that of the controls.

[2] = system: cholesterol synthesis in CHO cells; test: De novo cholesterol synthesis: incorporation of radiolabeled acetate into cholesterol in CHO cells; assay type: cell-based, Chinese Hamster; details: for Cholesterol Synthesis (DPMs): 17 hr + 2 hr with [14C]-acetic acid, Control 38855
Procedure: The ability of the compounds of Formula I to decrease de novo cholesterol synthesis was tested by measuring the incorporation of radiolabeled acetate into cholesterol synthesized in CHO cells. To conduct this experiment, CHO cells were plated at 0.3×10^6 cells per 15×60 mm tissue culture dish in 5 mL of McCoy's modified medium (Gibco Laboratories) containing 1% Cab-O-Sil delipidated FBS and incubated for 48 hours at 37° in a 5% CO2, 95% air environment. Test compounds in a 2.5% suspension of BSA (fatty acid free) in ethanol were then added to the cultures such that the final ethanol and BSA concentrations were 0.5% and […], respectively. Control cultures received ethanol and BSA alone. The cultures containing test compounds were then incubated at 37° in a 5% Co, 95% air environment for 17 hr before the addition of [1,2-^14 C]-acetic acid (57 μCi/mmol); obtained from New England Nuclear, Boston, Mass.) at a concentration of 10 μCi/mL for 2 additional hr.
The cells were harvested by washing the cells twice with 5 mL of cold PBS and scraping the cells into 1 mL PBS. The cell-containing solution was then transferred to 15 mL extraction tubes and treated with 1 mL of 90% methanol (containing 15% KOH, 100 μg/mL butylated hydroxytoluene). All samples were saponified for 1 hr at 80° and the non-saponifiable lipids then extracted with petroleum ether. The petroleum ether fractions were dried under nitrogen, resuspended in ethanol, counted and analyzed by reverse phase HPLC at 45° using an Ultrashpere Octyl column (from Altex Scientific Inc., Berkeley, Calif.) with a mobile phase of acetonitrile:methanol:water (44:44:12). The amount of cholesterol synthesis is measured by the amount of radiolabeled acetate incorporated into the cholesterol peak. The percent of cholesterol synthesis in the treated culture is calculated based upon the control culture.

[3] = biological target: T1, Lanosta-8,24-dien-3β-ol 14α-methyl demethylase (Rattus norvegicus, UniProt Q64654); test: Lanosta-8,24-dien-3β-ol 14α-Methyl Demethylase Inhibition Assay; assay type: biochemical; details: rat hepatic microsomal preparations, 100 μM lanost-8-en-3β-ol substrate, pH not given; test compounds 0 to 100 μM
T1 construct: determined in rat depatic microsomal preparations; from tissue; host or cells: rat hepatic microsomes
T1 sequence (Q64654 1-503): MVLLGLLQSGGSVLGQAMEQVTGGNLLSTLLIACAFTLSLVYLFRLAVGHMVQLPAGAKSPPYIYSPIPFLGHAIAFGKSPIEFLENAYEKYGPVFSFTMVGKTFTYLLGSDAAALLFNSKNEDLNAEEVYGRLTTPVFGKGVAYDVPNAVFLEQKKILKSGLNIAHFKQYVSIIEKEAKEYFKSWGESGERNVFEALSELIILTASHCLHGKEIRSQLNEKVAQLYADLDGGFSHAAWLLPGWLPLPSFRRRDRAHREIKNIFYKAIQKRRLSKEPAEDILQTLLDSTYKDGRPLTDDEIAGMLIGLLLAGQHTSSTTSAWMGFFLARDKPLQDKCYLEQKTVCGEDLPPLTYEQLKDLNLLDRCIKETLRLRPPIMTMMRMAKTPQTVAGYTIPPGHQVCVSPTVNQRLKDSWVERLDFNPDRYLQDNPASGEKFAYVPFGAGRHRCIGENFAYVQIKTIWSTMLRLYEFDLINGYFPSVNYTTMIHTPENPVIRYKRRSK
Procedure: Lanosta-8,24-dien-3β-ol 14α-methyl demethylase activity was determined in rat depatic microsomal preparations as described in Trzaskos et al., J. Biol. Chem., 261, 16937-16942 (1986). Specifically, test compounds were added to assay mixtures as detergent suspensions with substrate employing 5 mg Triton WR-1339, 100 μM lanost-8-en-3β-ol substrate, and test compounds ranging from 0 to 100 μM. The inhibitor/substrate/detergent suspension was incubated with 2 mg microsomal protein for 5 min at 37° followed by a 10 min incubation initiated by the addition of cofactors required for the reaction. […] Inhibition values are expressed as the amount of compound required to inhibit lanosta-8,24-dien-3β-ol 14α-methyldemethylase activity by 50% relative to that of the controls.

[4] = Lowering blood (plasma) cholesterol levels in hamsters; assay type: in vivo, Male Golden Syrian hamsters; details: 0.2% (w/w) in diet, 7 days, N = 16, means±SEM
Procedure: Male Golden Syrian hamsters (50-60 grams) were obtained from Charles River, Inc. (Wilmington, Mass.). Animals were housed in individual suspension cages and were maintained on a light cycle consisting of 12 hours of light followed by 12 hours of dark. Animals were allowed free access to water and feed (Agway ground chow, RMH 3200, Agway, Syracuse, N.Y.) containing 1% (w/w) corn oil) for a minimum of 4 weeks. Following this stabilization period a sample of blood was collected by orbital sinus bleeding under light ether anesthesia into heparinized capillary tubes. Plasma was separated by centrifugation (600×g for 10 minutes) and plasma cholesterols were determined by an autoanalyzer (Centrifichem 600, Baker Instruments, Allentown, Pa.). Based upon measured plasma cholesterol values, the animals were randomized into two groups such that the mean plasma cholesterol values were identical for both groups.
Animals in the two groups were then placed on one of two diets: (1) Diet A, consisting of ground chow plus 1% (w/w) corn oil, as described above; or (2) Diet B, consisting of Diet A plus 0.2% (w/w) of a test compound. Animals on Diet B, the treated animals, were allowed free access to feed and water, while animals on Diet A were pair-matched with Diet B animals and served as pair-fed controls. […] Total plasma cholesterol levels were determined as described above. […]

For CC(C)CCC[C@@H](C)[C@H]1C[C@H](O)[C@@]2(O)C3=C(CC[C@]12C)[C@@]1(C)CC[C@H](O)C(C)(C)[C@@H]1CC3 [Compound 34a, 4,4-dimethyl-5α-cholest-8-en-3β,14α,15α-triol], the IC50 [1] was 0.5 µM, the “Cholesterol Synthesis (DPMs)” value ([2]; 1 μM) was 16521 DPMs and the activity at 1 µM ([2]; Cricetulus griseus, 19 h, 1 μM, percent of control culture (100)) was 43%. For the same molecule, the IC50 [3] was 3 µM and the “Plasma Cholesterol, Treated” value ([4]; pair-fed control 136.0 ± 3.5) was 119.3 ± 2.3 mg/dL.
In the case of CC(C)CCC[C@@H](C)[C@H]1CC(=NO)[C@@]2(C)C3=CC[C@H]4C(C)(C)[C@@H](O)CC[C@]4(C)[C@H]3CC[C@]12C [Compound 31b, 3β-hydroxy-lanost-7-en-15-oxime], the IC50 [1] is reported as 0.2 µM, the “Cholesterol Synthesis (DPMs)” value ([2]; 0.5 μM) is reported as 24064 DPMs and the activity at 0.5 µM ([2]; Cricetulus griseus, 19 h, 0.5 μM, percent of control culture (100)) is reported as 62%. For the same molecule, the IC50 [3] was 55 µM and the “Plasma Cholesterol, Treated” value ([4]; pair-fed control 136.0 ± 4.8) was 69.6 ± 2.6 mg/dL.
